How the values were obtained:
Carbonic anhydrase 9 = Carbonic anhydrase 9 (Homo sapiens, UniProt Q16790); assay: Inhibition of human CA9 by CO2 hydration activity based stopped flow assay
Oryctolagus cuniculus [1] = assay: Antiglaucoma activity in New Zealand rabbit model of hypertonic saline-induced ocular hypertension assessed as reduction in intraocular pressure dosed with 50 uL of 2% compound solution and measured after 1 to 2 hrs; format: functional, Eye
Oryctolagus cuniculus [2] = assay: Antiglaucoma activity in New Zealand rabbit model of hypertonic saline-induced ocular hypertension assessed as reduction in intraocular pressure dosed with 50 uL of 2% compound solution and measured after 2 hrs; format: functional, Eye
Oryctolagus cuniculus [3] = assay: Antiglaucoma activity in New Zealand rabbit model of carbomer-induced ocular hypertension assessed as reduction in intraocular pressure dosed with 50 uL of 2% compound solution and measured after 3 to 4 hrs; format: functional, Eye

Structure (SMILES) | Ki (Carbonic anhydrase 9) [µM] | further results
NS(=O)(=O)c1ccc(-c2nonc2S(=O)(=O)c2ccccc2)cc1 | 0.0636 | 
NC(=O)c1c(COc2ccc(S(N)(=O)=O)cc2)no[n+]1[O-] | 0.0323 | Activity (Oryctolagus cuniculus [1]): 5 mmHg
NS(=O)(=O)c1ccc(Oc2no[n+]([O-])c2S(=O)(=O)c2ccccc2)cc1 | 0.0064 | 
NS(=O)(=O)c1ccc(Oc2nonc2S(=O)(=O)c2ccccc2)cc1 | 0.0073 | 
COc1nonc1S(N)(=O)=O | 0.0058 | 
NC(=O)c1nonc1COc1ccc(S(N)(=O)=O)cc1 | 0.0498 | Activity (Oryctolagus cuniculus [1]): 5 mmHg
N#Cc1nonc1COc1ccc(S(N)(=O)=O)cc1 | 0.0108 | Activity (Oryctolagus cuniculus [2]): 8 mmHg
NS(=O)(=O)c1ccc(-c2c([N+](=O)[O-])no[n+]2[O-])cc1 | 0.0545 | 
N#Cc1c(COc2ccc(S(N)(=O)=O)cc2)no[n+]1[O-] | 0.0113 | Activity (Oryctolagus cuniculus [2]): 8 mmHg
Cc1no[n+]([O-])c1S(N)(=O)=O | 0.0065 | Activity (Oryctolagus cuniculus [3]): 10 mmHg
Cc1nonc1S(N)(=O)=O | 0.0079 | Activity (Oryctolagus cuniculus [3]): 10 mmHg
CCOc1nonc1S(N)(=O)=O | 0.0066 | 
Cc1c(S(N)(=O)=O)no[n+]1[O-] | 0.0073 | Activity (Oryctolagus cuniculus [3]): 10 mmHg
NS(=O)(=O)c1ccc(-c2nonc2[N+](=O)[O-])cc1 | 0.0547 | 
CCCCOc1nonc1S(N)(=O)=O | 0.0048 | 
NS(=O)(=O)c1nonc1-c1ccccc1 | 0.0063 | 
NS(=O)(=O)c1nonc1OCc1ccccc1 | 0.0058 | 
CC(C)COc1nonc1S(N)(=O)=O | 0.0039 | 
NS(=O)(=O)c1nonc1Oc1ccccc1 | 0.0063 | 

Further lines, with some results ahead:

Ki (Carbonic anhydrase 9) [µM] | Structure (SMILES) | further results
0.0629 | NS(=O)(=O)c1ccc(-c2nonc2-c2ccccc2)cc1 | 
5.04 | NS(=O)(=O)c1ccc(-c2c(Sc3ccccc3)no[n+]2[O-])cc1 | 
0.0345 | NS(=O)(=O)c1ccc(-c2c(S(=O)(=O)c3ccccc3)no[n+]2[O-])cc1 | 
0.11 | NS(=O)(=O)c1ccc(OCc2nonc2-c2ccccc2)cc1 | 
0.0479 | NS(=O)(=O)c1ccc(OCc2no[n+]([O-])c2-c2ccccc2)cc1 | 
0.0576 | NS(=O)(=O)c1ccc(-c2nonc2Sc2ccccc2)cc1 | 
0.0639 | NS(=O)(=O)c1ccc(-c2c(Oc3ccccc3)no[n+]2[O-])cc1 | 
0.0074 | NS(=O)(=O)c1c(-c2ccccc2)no[n+]1[O-] | 
0.0071 | NS(=O)(=O)c1no[n+]([O-])c1-c1ccccc1 | 
0.058 | NS(=O)(=O)c1ccc(-c2c(-c3ccccc3)no[n+]2[O-])cc1 | 
0.0628 | NS(=O)(=O)c1ccc(-c2no[n+]([O-])c2-c2ccccc2)cc1 | 
0.0711 | NS(=O)(=O)c1ccc(-c2nonc2Oc2ccccc2)cc1 | 

Reference: ChEMBL document CHEMBL3352431, “Furazan and furoxan sulfonamides are strong α-carbonic anhydrase inhibitors and potential antiglaucoma agents” (Bioorg Med Chem, 2014)
